36 compounds from patent publication US20230157996A1, “SMALL-MOLECULE INHIBITOR TARGETING EB VIRUS NUCLEAR ANTIGEN PROTEIN, PREPARATION METHOD AND USE THEREOF” (priority 2020, published 2023) can be followed below.

This assay concerns C666-1 cells. In words: C666-1 cell viability single concentration (50 μM) inhibition rate (Resazurin). It is filed as cell-based. Particulars: Homo sapiens, C6661, 72 h, read-out: C666-1 cell viability single concentration (50 μM) inhibition rate, Ratio* (Inh %). As to the method: In order to assess the effect of the EBNA1 inhibitor at the cellular level, the cell proliferation inhibition rate was tested, and the inhibition rate of inhibitor at a specific concentration on the proliferation of Epstein-Barr virus positive cell line C666-1 was detected.
In the test, 100 μL C666-1 cells were inoculated in a transparent 96-well plate, and each well contained 5×10^3 cells. After the cells were cultured in an incubator with 5% carbon dioxide at 37° C. for 24 hours, 10 μL compound at a concentration of 500 μmol/L was added into the cells, so that the final concentration of the compound was 50 μmol/L. Two replicate wells were set for each compound, the wells treated with DMSO were set as control wells (Ctrl), and the wells with cell culture medium only were set as blank wells (blank), and they were treated in the incubator with carbon dioxide at 37° C. for 72 hours. The cell viability was assessed using a redox indicator Resazurin. Specifically, 10 μL Resazurin at a concentration of 600 umol/L was added into each well, and incubated at 37° C. for 3 hours, and a Tecan microplate reader was used to detect the fluorescence signal at an excitation wavelength of 560 nm and an emission wavelength of 590 nm. The formula inh %=1−(F−Fblank)/(FCtrl−Fblank)×100% (where, F is the fluorescence intensity of the compound-added wells, FCtrl and Fblank are the readings of the control wells and blank wells, respectively) was used to calculate the inhibition rate of the compound on the proliferation of C666-1 cells, so as to assess the activity of the compound on Epstein-Barr virus positive cells.

Setting [1] is: 50 μM compound, 72 hours, C666-1 cells.

Read-outs that look alike come from different tables or passages of the source.

For the compound `COc1ccc(C23CC(c4cccc(C(=O)O)c4-n4cccc4)(C2)C3)cc1` [Compound 8, 3-(3-(4-methoxyphenyl)bicyclo[1.1.1]pentan-1-yl)-2-(1H-pyrrol-1-yl)benzoic acid], the inhibition at 50 µM under setting [1] was less than 10%.

For the compound `O=C(O)c1cccc(OC2CN(c3cccc(C(=O)NCc4ccccc4)c3)C2)c1` [Compound 71, 3-((1-(3-(benzylcarbamoyl)phenyl)azetidin-3-yl)oxy)benzoic acid], the inhibition at 50 µM under setting [1] was less than 10%.

For the compound `COC(=O)c1cccc(N2CC(Oc3ccc(CO)cc3)C2)c1-c1ccoc1` [Compound 48], the inhibition at 50 µM under setting [1] was greater than 50%.

With `O=C(O)c1cccc(N2CC(Oc3cccc(CO)c3)C2)c1-n1cccc1` [Example 298, 3-(3-(3-(hydroxymethyl)phenoxy)azetidin-1-yl)-2-(1H-pyrrol-1-yl)benzoic acid], under setting [1], the inhibition at 50 µM was less than 10%.

`Cc1ccc(S(=O)(=O)N(C#Cc2cccc(C(=O)O)c2-n2cccc2)Cc2ccc3c(ccn3C)c2)cc1` [Example 317, Lithium 3-(((4-methyl-N-((1-methyl-1H-indol-5-yl)methyl)phenyl)sulfonamido)ethynyl)-2-(1H-pyrrol-1-yl)benzoate]: the inhibition at 50 µM fell in the range of 10 to 30%.

For the compound `CS(=O)(=O)NC(=O)c1cccc(N2CC(Oc3ccc(CO)cc3)C2)c1-n1cccc1` [Example 369, N-methylsulfonyl-(3-(3-(4-(hydroxymethyl)phenoxy)azetidin-1-yl)-2-(1H-pyrrol-1-yl))benzamide], the inhibition at 50 µM under setting [1] was less than 10%.

On to `COC(=O)c1cccc(N2CC(Oc3ccc(CNC(C)=O)cc3)C2)c1-n1cccc1` [Compound 76, Methyl 3-(3-(4-(acetylaminomethyl)phenoxy)azetidin-1-yl)-2-(1H-pyrrol-1-yl)benzoate], for which the inhibition at 50 µM under setting [1] was 10 to 30%.

For the compound `COCCOc1ccc(OC2CN(c3cccc(C(=O)O)c3-n3cccc3)C2)cc1` [Example 225, 3-(3-(4-(2-methoxyethoxy)phenoxy)azetidin-1-yl)-2-(1H-pyrrol-1-yl)benzoic acid], under setting [1], the inhibition at 50 µM was in the range of 10 to 30%.

As to `Nc1c(C(=O)O)cccc1N1CC2(CN(c3cccc(C(=O)O)c3)C2)C1` [Compound 16, 2-amino-3-(6-(3-carboxylphenyl)-2,6-diazaspiro[3.3]heptan-2-yl)benzoic acid], the inhibition at 50 µM under setting [1] was less than 10%.

`Cc1ccc(S(=O)(=O)N(C#Cc2cccc(C(=O)O)c2-n2cccc2)Cc2ccccc2)cc1` [Example 380, 3-(((N-benzyl-4-methylphenyl)sulfonamido)ethynyl)-2-(1H-pyrrol-1-yl)benzoic acid]: the inhibition at 50 µM under setting [1] is less than 10%.

In the case of `Nc1c(C(=O)O)cccc1C1CC1c1ccccc1` (stereo not drawn) [Example 392, 2-amino-3-(2-phenylcyclopropyl)benzoic acid], the inhibition at 50 µM under setting [1] is less than 10%.

Take `Cc1cc(OC2CN(c3cccc(C(=O)O)c3-n3cccc3)C2)ccc1CO` [Example 252, 3-(3-(4-(hydroxymethyl)-3-methylphenoxy)azetidin-1-yl)-2-(1H-pyrrol-1-yl)benzoic acid]: the inhibition at 50 µM under setting [1] is less than 10%.

In the case of `CC(=O)NCCOc1ccc(OC2CN(c3cccc(C(=O)O)c3-n3cccc3)C2)cc1` [Example 313, 3-(3-(4-(2-acetylaminoethoxy)phenoxy)azetidin-1-yl)-2-(1H-pyrrol-1-yl)benzoic acid], the inhibition at 50 µM under setting [1] was less than 10%.

Consider `COC(=O)c1cccc(N2CC(S(=O)(=O)c3ccccc3)C2)c1-n1cccc1` [Example 356, Methyl 3-(3-(phenylsulfonyl)azetidin-1-yl)-2-(1H-pyrrol-1-yl)benzoate], for which, under setting [1], the inhibition at 50 µM was less than 10%.

On to `COC(=O)c1cccc(C#CN(Cc2ccc(C(F)(F)F)cc2)S(=O)(=O)c2cccs2)c1-n1cccc1` [Example 336, Methyl 3-((N-(4-(trifluoromethyl)benzyl)thiophen-2-sulfonamido)ethynyl)-2-(1H-pyrrol-1-yl)benzoate], for which the inhibition at 50 µM under setting [1] is less than 10%.

In the case of `COC(=O)c1cccc(N2CC(Oc3ccc([N+](=O)[O-])cc3)C2)c1-n1cccc1` [Example 286, Methyl 3-(3-(4-nitrophenoxy)azetidin-1-yl)-2-(1H-pyrrol-1-yl)benzoate], under setting [1], the inhibition at 50 µM was 10 to 30%.

Regarding `O=C(O)c1cccc(N2CC(Oc3ccc(CO)cc3)C2)c1-c1cccc(Cl)c1` [Compound 54], the inhibition at 50 µM under setting [1] lay within 30 to 50%.

For the compound `O=C(O)c1cccc(N2CC(Oc3ccc(Oc4ccccc4)cc3)C2)c1-n1cccc1` [Example 112, 3-(3-(4-phenoxyphenoxy)azetidin-1-yl)-2-(1H-pyrrol-1-yl)benzoic acid], the inhibition at 50 µM under setting [1] is less than 10%.

As to `COC(=O)c1cccc(N2CC(Oc3ccc(NC(=O)c4cccs4)cc3)C2)c1-n1cccc1` [Example 122, Methyl 2-(1H-pyrrol-1-yl)-3-(3-(4-(thiophene-2-formamido)phenoxy)azetidin-1-yl)benzoate], the inhibition at 50 µM under setting [1] fell in the range of 10 to 30%.

Take `O=C(O)c1cccc(N2CC(Oc3ccccc3)C2)c1-n1cccc1` [Example 102, 3-(3-phenoxyazetidin-1-yl)-2-(1H-pyrrol-1-yl)benzoic acid]: the inhibition at 50 µM under setting [1] is less than 10%.

Turning to `CS(=O)(=O)c1ccc(Oc2ccc(OC3CN(c4cccc(C(=O)O)c4-n4cccc4)C3)cc2)cc1` [Example 213, 3-(3-(4-(4-(methylsulfonyl)phenoxy)phenoxy)azetidin-1-yl)-2-(1H-pyrrol-1-yl)benzoic acid], the inhibition at 50 µM under setting [1] was less than 10%.

In the case of `COC(=O)c1cccc(N2CC(Oc3ccc(CO)cc3)C2)c1-c1ccc2nsnc2c1` [Compound 45, Methyl 2-(benzo[c][1,2,5]thiadiazol-5-yl)-3-(3-(4-(hydroxymethyl)phenoxy)azetidin-1-yl)benzoate], the inhibition at 50 µM under setting [1] lay within 10 to 30%.

With `COc1ccc(CN(C#Cc2cccc(C(=O)O)c2-n2cccc2)S(=O)(=O)c2ccc(C)cc2)cc1` [Example 386], the inhibition at 50 µM is less than 10%.

Consider `O=C(O)c1cccc(N2CC(Oc3cc(F)c(Oc4ccccc4)c(F)c3)C2)c1-n1cccc1` [Example 205, 3-(3-(3,5-difluoro-4-phenoxyphenoxy)azetidin-1-yl)-2-(1H-pyrrol-1-yl)benzoic acid], for which, under setting [1], the inhibition at 50 µM was less than 10%.

Consider `COC(=O)c1cccc(N2CC(Oc3ccc(Oc4ccccc4)cc3)C2)c1-n1cccc1` [Example 111, Methyl 3-(3-(4-phenoxyphenoxy)azetidin-1-yl)-2-(1H-pyrrol-1-yl)benzoate], for which, under setting [1], the inhibition at 50 µM was less than 10%.

With `CC(C)C(=O)c1ccc(OC2CN(c3cccc(C(=O)O)c3-n3cccc3)C2)cc1` [Example 217, 3-(3-(4-isobutyrylphenoxy)azetidin-1-yl)-2-(1H-pyrrol-1-yl)benzoic acid], the inhibition at 50 µM under setting [1] is less than 10%.

`O=C(O)c1cccc(N2CC(Oc3ccc(Oc4ccc(Cl)cc4)cc3)C2)c1-n1cccc1` [Example 195, 3-(3-(4-(4-chlorophenoxy)phenoxy)azetidin-1-yl)-2-(1H-pyrrol-1-yl)benzoic acid]: the inhibition at 50 µM under setting [1] fell in the range of 10 to 30%.

For the compound `CCNC(=O)c1ccc(OC2CN(c3cccc(C(=O)OC)c3-n3cccc3)C2)cc1` [Example 303, Methyl 3-(3-(4-(ethylcarbamoyl)phenoxy)azetidin-1-yl)-2-(1H-pyrrol-1-yl)benzoate], the inhibition at 50 µM under setting [1] was in the range of 10 to 30%.

For `Nc1c(C(=O)O)cccc1N1CC(Oc2cccc(C(=O)O)c2)C1` [Compound 72, 3-(3-(3-carboxylphenoxy)azetidin-1-yl)-2-aminobenzoic acid], under setting [1], the inhibition at 50 µM is less than 10%.

In the case of `COC(=O)c1cccc(N2CC3(CN(c4ccccc4[N+](=O)[O-])C3)C2)c1-n1cccc1` [Compound 21, Methyl 3-(6-(2-nitrophenyl)-2,6-diazaspiro[3.3]heptan-2-yl)-2-(1H-pyrrol-1-yl)benzoate], under setting [1], the inhibition at 50 µM is 10 to 30%.

On to `O=C(O)c1cccc(N2CC(Oc3ccc(COC4CCOC4)cc3)C2)c1-n1cccc1` (stereo not drawn) [Example 376], for which, under setting [1], the inhibition at 50 µM lay in the range of 10 to 30%.

For the compound `O=C(O)c1cccc(N2CC(Oc3ccc(COc4ccccc4)cc3)C2)c1-n1cccc1` [Example 115, 3-(3-(4-(phenoxymethyl)phenoxy)azetidin-1-yl)-2-(1H-pyrrol-1-yl)benzoic acid], under setting [1], the inhibition at 50 µM was less than 10%.

In the case of `Cn1ccc2cc(CN(C#Cc3cccc(C(=O)O)c3-n3cccc3)S(=O)(=O)c3csc4ccccc34)ccc21` [Example 335, Lithium 3-((N-((1-methyl-1H-indol-5-yl)methyl)benzo[b]thiophen-3-sulfonamido)ethynyl)-2-(1H-pyrrol-1-yl)benzoate], the inhibition at 50 µM is less than 10%.

`COC(=O)c1cccc(N2CC(Oc3ccc(Oc4ccc(C(C)=O)cc4)cc3)C2)c1-n1cccc1` [Example 206, Methyl 3-(3-(4-(4-acetylphenoxy)phenoxy)azetidin-1-yl)-2-(1H-pyrrol-1-yl)benzoate]: the inhibition at 50 µM under setting [1] was less than 10%.

Turning to `COc1cc(NC(=O)NC2CN(c3cccc(C(=O)O)c3-n3cccc3)C2)cc(OC)c1` [Example 171, 3-(3-(3-(3,5-dimethoxyphenyl)ureido)azetidin-1-yl)-2-(1H-pyrrol-1-yl)benzoic acid], the inhibition at 50 µM under setting [1] is less than 10%.

Take `COC(=O)c1cccc(C#CN(Cc2ccc(C)cc2)S(=O)(=O)c2ccc(C)cc2)c1-n1cccc1` [Example 342]: the inhibition at 50 µM under setting [1] is less than 10%.
